Measured values published in patent US8304234B2, “Compositions and methods for delivery of genetic material” (The Trustees of the Universtiy of Pennsylvania, priority 1993, dated 2012).

B1: GA733 protein: GA733 protein administered to control animals (protein, UniProt P16422 24-314, looked up)
Epithelial cell adhesion …: QEECVCENYKLAVNCFVNNNRQCQCTSVGAQNTVICSKLAAKCLVMKAEMNGSKLGRRAKPEGALQNNDGLYDPDCDESGLFKAKQCNGTSMCWCVNTAGVRRTDKDTEITCSERVRTYWIIIELKHKAREKPYDSKSLRTALQKEITTRYQLDPKFITSILYENNVITIDLVQNSSQKTQNDVDIADVAYYFEKDVKGESLFHSKKMDLTVNGEQLDLDPGQTLIYYVDEKAPEFSMQGLKAGVIAVIVVVVIAVVAGIVVLVISRKKRMAKYEKAEIKEMGEMHRELNA

Columns and labels:
[1] = tested on: tumor cells transfected with DNA encoding neu; assay: Tumor challenge model, tumor cells transfected with DNA encoding neu
From the text: In experiments designed to compare the immunogenic response elicited by genetic vaccination and protein vaccination, animal models were designed using tumor cells that specifically express a foreign target protein. Three immune competent mouse models have been developed which express foreign antigens. Three clonal tumor cell lines which are derived from the Balb/c mouse strain are used. […] Subclones have been selected which can display foreign antigens in an unrecognized form. […] Using these models, the immune response elicited by genetic vaccination against an antigen can be measured.
A DNA construct was designed to test the effectiveness of a genetic vaccine against human p185neu in mice. […] The animal model used was described above. Tumor cells were transfected with DNA encoding neu, confirmed to express the protein and implanted into the animal. Controls included untransfected tumor lines.
Controls included unvaccinated animals and animals administered the p185neu protein.

[2] = tested on: tumor cells transfected with DNA encoding GA733; assay: Tumor challenge model, tumor cells transfected with DNA encoding GA733
From the text: Using these models, the immune response elicited by genetic vaccination against an antigen can be measured.
A DNA construct was designed to test the effectiveness of a genetic vaccine against human GA733 in mice. […] The animal model used was described above. Tumor cells were transfected with DNA encoding GA733, confirmed to express the protein and implanted into the animal. Controls included untransfected tumor lines.
Genetically immunized animals were vaccinated with plasmid pGA733-2, described in Example 14, following the method described above. Controls included unvaccinated animals and animals administered the GA733 protein.

Molecule | effect on transfected tumors ([1]; neu-transfected tumors, vaccinated mice) | effect on mortality ([1]; vaccinated mice bearing tumors) | effect on transfected tumors ([2]; GA733-transfected tumors, vaccinated mice) | effect on mortality ([2]; vaccinated mice bearing tumors)
p185 protein: p185neu protein administered to control animals | some reduction in tumor size | no effect on mortality | – | –
B1 | – | – | some reduction in tumor size | no effect on mortality
